From the supplement of paper PMC10307832

How the values were obtained:
Assay in all cases: relative viability (nuclei count vs DMSO), 5 days (fraction); higher = more cells survive
NCI-H838 = system: NCI-H838
Outline: (§1)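 Lung cancer cell lines, seeded in 1536-well plates, were treated the following day by pin tool with a single drug or with five library-drug doses (not always all listed) in √10 steps on top of a fixed anchor-drug dose. Cells were fixed and nuclei stained in one step after 5 days, and nuclei were counted. Relative viability is the nuclei count for treated wells divided by that for vehicle wells, reported as medians of duplicate plates.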

A549 = system: A549
Outline: as §1

IA-LM = system: IA-LM
Outline: as §1

NCI-H520 = system: NCI-H520
Outline: as §1

RERF-LC-KJ = system: RERF-LC-KJ
Outline: as §1

NCI-H1651 = system: NCI-H1651
Outline: as §1

EBC-1 = system: EBC-1
Outline: as §1

NCI-H650 = system: NCI-H650
Outline: as §1

NCI-H1623 = system: NCI-H1623
Outline: as §1

Calu-6 = system: Calu-6
Outline: as §1

NCI-H1944 = system: NCI-H1944
Outline: as §1

NCI-H1299 = system: NCI-H1299
Outline: as §1

NCI-H1703 = system: NCI-H1703
Outline: as §1

## CCN(CC)CCCCNc1ncc2cc(-c3cc(OC)cc(OC)c3)c(NC(=O)NC(C)(C)C)nc2n1 + COc1cc2c(Oc3ccc(NC(=O)C4(C(=O)Nc5ccc(F)cc5)CC4)cc3F)ccnc2cc1OCCCN1CCOCC1 [Foretinib] (partner 0.25 µM)
NCI-H838; first compound 0.01 µM
  relative viability: 1.01
NCI-H838; first compound 0.03162 µM
  relative viability: 0.958
NCI-H838; first compound 0.1 µM
  relative viability: 1.19
NCI-H838; first compound 0.3162 µM
  relative viability: 0.986
NCI-H838; first compound 1 µM
  relative viability: 0.789
A549; first compound 0.01 µM
  relative viability: 1.07
A549; first compound 0.03162 µM
  relative viability: 0.841
A549; first compound 0.1 µM
  relative viability: 1.1
A549; first compound 0.3162 µM
  relative viability: 1.17
A549; first compound 1 µM
  relative viability: 0.758
IA-LM; first compound 0.01 µM
  relative viability: 1.19
IA-LM; first compound 0.03162 µM
  relative viability: 1.33
IA-LM; first compound 0.1 µM
  relative viability: 1.17
IA-LM; first compound 0.3162 µM
  relative viability: 1.16
IA-LM; first compound 1 µM
  relative viability: 1.23
NCI-H520; first compound 0.01 µM
  relative viability: 0.677
NCI-H520; first compound 0.03162 µM
  relative viability: 0.834
NCI-H520; first compound 0.1 µM
  relative viability: 1.15
NCI-H520; first compound 0.3162 µM
  relative viability: 0.543
NCI-H520; first compound 1 µM
  relative viability: 0.326
RERF-LC-KJ; first compound 0.01 µM
  relative viability: 0.893
RERF-LC-KJ; first compound 0.03162 µM
  relative viability: 0.901
RERF-LC-KJ; first compound 0.1 µM
  relative viability: 0.871
RERF-LC-KJ; first compound 0.3162 µM
  relative viability: 0.872
RERF-LC-KJ; first compound 1 µM
  relative viability: 0.941
NCI-H1651; first compound 0.01 µM
  relative viability: 0.789
NCI-H1651; first compound 0.03162 µM
  relative viability: 0.949
NCI-H1651; first compound 0.1 µM
  relative viability: 0.82
NCI-H1651; first compound 0.3162 µM
  relative viability: 0.761
NCI-H1651; first compound 1 µM
  relative viability: 0.748
EBC-1; first compound 0.01 µM
  relative viability: 0.103
EBC-1; first compound 0.03162 µM
  relative viability: 0.111
EBC-1; first compound 0.1 µM
  relative viability: 0.12
EBC-1; first compound 0.3162 µM
  relative viability: 0.104
EBC-1; first compound 1 µM
  relative viability: 0.106
NCI-H650; first compound 0.01 µM
  relative viability: 0.968
NCI-H650; first compound 0.03162 µM
  relative viability: 0.992
NCI-H650; first compound 0.1 µM
  relative viability: 1.06
NCI-H650; first compound 0.3162 µM
  relative viability: 1.09
NCI-H650; first compound 1 µM
  relative viability: 1.13
NCI-H1623; first compound 0.01 µM
  relative viability: 0.859
NCI-H1623; first compound 0.03162 µM
  relative viability: 0.674
NCI-H1623; first compound 0.1 µM
  relative viability: 0.876
NCI-H1623; first compound 0.3162 µM
  relative viability: 0.945
NCI-H1623; first compound 1 µM
  relative viability: 0.874
Calu-6; first compound 0.01 µM
  relative viability: 0.97
Calu-6; first compound 0.03162 µM
  relative viability: 0.994
Calu-6; first compound 0.1 µM
  relative viability: 1.02
Calu-6; first compound 0.3162 µM
  relative viability: 0.902
Calu-6; first compound 1 µM
  relative viability: 0.86
NCI-H1944; first compound 0.01 µM
  relative viability: 0.848
NCI-H1944; first compound 0.03162 µM
  relative viability: 0.873
NCI-H1944; first compound 0.1 µM
  relative viability: 0.844
NCI-H1944; first compound 0.3162 µM
  relative viability: 0.946
NCI-H1944; first compound 1 µM
  relative viability: 0.771
NCI-H1299; first compound 0.01 µM
  relative viability: 1.12
NCI-H1299; first compound 0.03162 µM
  relative viability: 1.1
NCI-H1299; first compound 0.1 µM
  relative viability: 1.16
NCI-H1299; first compound 0.3162 µM
  relative viability: 1.08
NCI-H1299; first compound 1 µM
  relative viability: 1.02
NCI-H1703; first compound 0.01 µM
  relative viability: 0.314
NCI-H1703; first compound 0.1 µM
  relative viability: 0.388
NCI-H1703; first compound 0.3162 µM
  relative viability: 0.308
NCI-H1703; first compound 1 µM
  relative viability: 0.373

## O=c1cc(-c2cccc3c2Sc2ccccc2S3)oc(N2CCOCC2)c1 + COc1cc2c(Oc3ccc(NC(=O)C4(C(=O)Nc5ccc(F)cc5)CC4)cc3F)ccnc2cc1OCCCN1CCOCC1 [Foretinib] (partner 0.25 µM)
NCI-H838; first compound 0.08 µM
  relative viability: 0.995
NCI-H838; first compound 0.253 µM
  relative viability: 1.25
NCI-H838; first compound 0.8 µM
  relative viability: 0.88
NCI-H838; first compound 2.53 µM
  relative viability: 0.878
NCI-H838; first compound 8 µM
  relative viability: 0.972
A549; first compound 0.08 µM
  relative viability: 1
A549; first compound 0.253 µM
  relative viability: 1.06
A549; first compound 0.8 µM
  relative viability: 1.15
A549; first compound 2.53 µM
  relative viability: 0.978
A549; first compound 8 µM
  relative viability: 1.03
IA-LM; first compound 0.08 µM
  relative viability: 1.45
IA-LM; first compound 0.253 µM
  relative viability: 1.33
IA-LM; first compound 0.8 µM
  relative viability: 1.32
IA-LM; first compound 2.53 µM
  relative viability: 1.04
IA-LM; first compound 8 µM
  relative viability: 1.23
NCI-H520; first compound 0.08 µM
  relative viability: 0.786
NCI-H520; first compound 0.253 µM
  relative viability: 0.885
NCI-H520; first compound 0.8 µM
  relative viability: 0.835
NCI-H520; first compound 2.53 µM
  relative viability: 0.779
NCI-H520; first compound 8 µM
  relative viability: 0.985
RERF-LC-KJ; first compound 0.08 µM
  relative viability: 0.836
RERF-LC-KJ; first compound 0.253 µM
  relative viability: 0.952
RERF-LC-KJ; first compound 0.8 µM
  relative viability: 0.745
RERF-LC-KJ; first compound 2.53 µM
  relative viability: 0.995
RERF-LC-KJ; first compound 8 µM
  relative viability: 0.792
NCI-H1651; first compound 0.08 µM
  relative viability: 0.798
NCI-H1651; first compound 0.253 µM
  relative viability: 0.909
NCI-H1651; first compound 0.8 µM
  relative viability: 0.861
NCI-H1651; first compound 2.53 µM
  relative viability: 0.754
NCI-H1651; first compound 8 µM
  relative viability: 0.979
EBC-1; first compound 0.08 µM
  relative viability: 0.106
EBC-1; first compound 0.253 µM
  relative viability: 0.0935
EBC-1; first compound 0.8 µM
  relative viability: 0.104
EBC-1; first compound 2.53 µM
  relative viability: 0.105
EBC-1; first compound 8 µM
  relative viability: 0.111
NCI-H650; first compound 0.08 µM
  relative viability: 0.998
NCI-H650; first compound 0.253 µM
  relative viability: 1.09
NCI-H650; first compound 0.8 µM
  relative viability: 1.04
NCI-H650; first compound 8 µM
  relative viability: 1.01
NCI-H1623; first compound 0.08 µM
  relative viability: 0.834
NCI-H1623; first compound 0.253 µM
  relative viability: 0.865
NCI-H1623; first compound 0.8 µM
  relative viability: 0.765
NCI-H1623; first compound 2.53 µM
  relative viability: 0.866
NCI-H1623; first compound 8 µM
  relative viability: 0.917
Calu-6; first compound 0.08 µM
  relative viability: 0.916
Calu-6; first compound 0.253 µM
  relative viability: 0.963
Calu-6; first compound 0.8 µM
  relative viability: 0.932
Calu-6; first compound 2.53 µM
  relative viability: 0.867
Calu-6; first compound 8 µM
  relative viability: 0.799
NCI-H1944; first compound 0.08 µM
  relative viability: 0.832
NCI-H1944; first compound 0.253 µM
  relative viability: 0.853
NCI-H1944; first compound 0.8 µM
  relative viability: 0.899
NCI-H1944; first compound 2.53 µM
  relative viability: 0.825
NCI-H1944; first compound 8 µM
  relative viability: 0.951
NCI-H1299; first compound 0.08 µM
  relative viability: 1.09
NCI-H1299; first compound 0.253 µM
  relative viability: 1.13
NCI-H1299; first compound 0.8 µM
  relative viability: 1.15
NCI-H1299; first compound 2.53 µM
  relative viability: 1.09
NCI-H1299; first compound 8 µM
  relative viability: 1.1
NCI-H1703; first compound 0.08 µM
  relative viability: 0.348
NCI-H1703; first compound 0.253 µM
  relative viability: 0.421
NCI-H1703; first compound 0.8 µM
  relative viability: 0.273
NCI-H1703; first compound 2.53 µM
  relative viability: 0.321
NCI-H1703; first compound 8 µM
  relative viability: 0.334
